Measurements as given in patent publication US20110173718A1, “HERBICIDE TOLERANT PLANTS” (SYNGENTA CROP PROTECTION, INC., priority 2008, published 2011).

Columns and labels:
[1] = tested on: Tobacco (var Samsun) plantlets in agar; assay: HST + HPPD herbicide effects on tobacco seedlings in agar; type: in vivo; details: for % Injury, plus Mesotrione (0.004 ppm) (EXPECTED): Colby expected; for % Injury (O − E): observed minus expected
Protocol: Tobacco (var Samsun) plantlets germinated aseptically in agar made up in 1/3 strength Murashige and Skoog salts medium along with various doses of herbicide. Bleaching damage to emerging plantlets is assessed 7 DAT. The plantlets are kept covered under clear perspex and grown at 18° C. (night) and 24° C. (day) under a 16 h day (˜500-900 umol/m^2), 8 h darkness regime. Herbicide affected plantlets are bleached white and grow less. Synergistic/antagonistic responses are calculated using the Colby formula (Colby, S. R. (Calculating synergistic and antagonistic responses of herbicide Combinations”, Weeds, 15, p. 20-22, 1967).

tobacco leaf explants = assay: Tobacco leaf explants plated on NBM medium with haloxydine; type: in vivo; details: 1 mg/1 haloxydine
Protocol: To roughly evaluate comparative levels of ectopic HST expression independent PCR positive tobacco shoots have young leaves removed, cut into 1 cm squares and plated onto NBM medium incorporating 1 mg/1 haloxydine. These leaf explants produce callus and ultimately regenerated shoots.

[2] = haloxydine 0.3 ppm + mesotrione 0.004 ppm, agar, 7 DAT
[3] = haloxydine 0.6 ppm + mesotrione 0.004 ppm, agar, 7 DAT
[4] = haloxydine 1.2 ppm + mesotrione 0.004 ppm, agar, 7 DAT
[5] = haloxydine 2.4 ppm + mesotrione 0.004 ppm, agar, 7 DAT
[6] = haloxydine 4.7 ppm + mesotrione 0.004 ppm, agar, 7 DAT
[7] = haloxydine 9.4 ppm + mesotrione 0.004 ppm, agar, 7 DAT
[8] = haloxydine 18.8 ppm + mesotrione 0.004 ppm, agar, 7 DAT
[9] = haloxydine 37.5 ppm + mesotrione 0.004 ppm, agar, 7 DAT

SMILES: CS(=O)(=O)c1ccc(C(=O)C2C(=O)CCCC2=O)c([N+](=O)[O-])c1 [Mesotrione, mesotrione, reference compound]
- % Injury (bleaching), mesotrione by itself ([1]; mesotrione 0.004 ppm, 0.75% v/v DMSO, no haloxydine, agar, 7 DAT): 35%

SMILES: Oc1c(Cl)c(F)nc(F)c1Cl [Compound 1.1, haloxydine]
- callus and shoot regeneration (tobacco leaf explants; explants over expressing HST): green callus and shoots
- callus and shoot regeneration (tobacco leaf explants; untransformed explants or transformants with limited HST expression): bleached callus and stunted bleached shoots that ultimately died
- % Injury, plus Mesotrione (0.004 ppm) (EXPECTED) [1, 2]: 41.5%
- % Injury, plus Mesotrione (0.004 ppm) (EXPECTED) [1, 3]: 48%
- % Injury, plus Mesotrione (0.004 ppm) (EXPECTED) [1, 4]: 58%
- % Injury, plus Mesotrione (0.004 ppm) (EXPECTED) [1, 5]: 67.5%
- % Injury, plus Mesotrione (0.004 ppm) (EXPECTED) [1, 6]: 80%
- % Injury, plus Mesotrione (0.004 ppm) (EXPECTED) [1, 7]: 94%
- % Injury, plus Mesotrione (0.004 ppm) (EXPECTED) [1, 8]: 100%
- % Injury, plus Mesotrione (0.004 ppm) (EXPECTED) [1, 9]: 100%
- effect of adding a low dose of mesotrione on the herbicidal effect ([1]; agar grown tobacco plantlets): synergises
- % Injury, plus Mesotrione (0.004 ppm) (OBSERVED) [1, 2]: 50%
- % Injury (bleaching), haloxydine only ([1]; haloxydine 0.3 ppm, agar, 7 DAT): 10%
- % Injury, plus Mesotrione (0.004 ppm) (OBSERVED) [1, 3]: 50%
- % Injury (bleaching), haloxydine only ([1]; haloxydine 0.6 ppm, agar, 7 DAT): 20%
- % Injury, plus Mesotrione (0.004 ppm) (OBSERVED) [1, 4]: 70%
- % Injury (bleaching), haloxydine only ([1]; haloxydine 1.2 ppm, agar, 7 DAT): 35%
- % Injury, plus Mesotrione (0.004 ppm) (OBSERVED) [1, 5]: 90%
- % Injury (bleaching), haloxydine only ([1]; haloxydine 2.4 ppm, agar, 7 DAT): 50%
- % Injury, plus Mesotrione (0.004 ppm) (OBSERVED) [1, 6]: 100%
- % Injury (bleaching), haloxydine only ([1]; haloxydine 4.7 ppm, agar, 7 DAT): 70%
- % Injury, plus Mesotrione (0.004 ppm) (OBSERVED) [1, 7]: 100%
- % Injury (bleaching), haloxydine only ([1]; haloxydine 9.4 ppm, agar, 7 DAT): 90%
- % Injury, plus Mesotrione (0.004 ppm) (OBSERVED) [1, 8]: 100%
- % Injury (bleaching), haloxydine only ([1]; haloxydine 18.8 ppm, agar, 7 DAT): 100%
- % Injury, plus Mesotrione (0.004 ppm) (OBSERVED) [1, 9]: 100%
- % Injury (bleaching), haloxydine only ([1]; haloxydine 37.5 ppm, agar, 7 DAT): 100%
- % Injury (O − E) [1, 2]: 8.5%
- % Injury (O − E) [1, 3]: 2%
- % Injury (O − E) [1, 4]: 12%
- % Injury (O − E) [1, 5]: 22.5%
- % Injury (O − E) [1, 6]: 20%
- % Injury (O − E) [1, 7]: 6%
- % Injury (O − E) [1, 8]: 0%
- % Injury (O − E) [1, 9]: 0%
